Test results published in ChEMBL document CHEMBL3860026, “Depsidones from Lichens as Natural Product Inhibitors of M-Phase Phosphoprotein 1, a Human Kinesin Required for Cytokinesis” (J Nat Prod, 2016).
pEC50, pIC50: −log10 of the molar value. ≈ marks a conversion by molar mass, not a printed value. Calls of active or inactive are those of the source. The calls are words filed in the database; no cut-off is given here.

What was measured:
[1] = biological target: T1, Kinesin-like protein KIF20B (Homo sapiens, UniProt Q96Q89); assay: Inhibition of basal ATPase activity of N-terminal His6-tagged/SUMO-fused human MPP1 motor domain (57 to 491 residues) expressed in Escherichia coli BL21 CodonPlus by pyruvate kinase/lactate dehydrogenase-linked assay
[2] = biological target: T1, Kinesin-like protein KIF20B; assay: Inhibition of microtubule-stimulated ATPase activity of N-terminal His6-tagged/SUMO-fused human MPP1 motor domain (57 to 491 residues) expressed in Escherichia coli BL21 CodonPlus by pyruvate kinase/lactate dehydrogenase-linked assay
[3] = biological target: T1, Kinesin-like protein KIF20B; assay: Inhibition of basal ATPase activity of N-terminal His6-tagged/SUMO-fused human MPP1 motor domain (2 to 477 residues) expressed in Escherichia coli BL21 CodonPlus by pyruvate kinase/lactate dehydrogenase-linked assay
[4] = biological target: T1, Kinesin-like protein KIF20B; assay: Inhibition of microtubule-stimulated ATPase activity of N-terminal His6-tagged/SUMO-fused human MPP1 motor domain (2 to 477 residues) expressed in Escherichia coli BL21 CodonPlus by pyruvate kinase/lactate dehydrogenase-linked assay
[5] = biological target: T1, Kinesin-like protein KIF20B; assay: Inhibition of basal ATPase activity of N-terminal His6-tagged/SUMO-fused human MPP1 motor domain (57 to 491 residues) expressed in Escherichia coli BL21 CodonPlus in presence of 0.1% Tween-20 by pyruvate kinase/lactate dehydrogenase-linked assay
[6] = biological target: T1, Kinesin-like protein KIF20B; assay: Inhibition of basal ATPase activity of N-terminal His6-tagged/SUMO-fused human MPP1 motor domain (2 to 477 residues) expressed in Escherichia coli BL21 CodonPlus in presence of 0.1% Tween-20 by pyruvate kinase/lactate dehydrogenase-linked assay
[7] = Cytotoxicity against human HCT116 cells assessed as growth inhibition after 72 hrs by Alamar Blue assay; type: functional, cell-based; settings: HCT-116, 72 h
[8] = Cytotoxicity against human J82 cells assessed as growth inhibition after 72 hrs by Alamar Blue assay; type: functional, cell-based; settings: J82, 72 h
[9] = Cytotoxicity against human UM-UC-3 cells assessed as growth inhibition after 72 hrs by Alamar Blue assay; type: functional, cell-based; settings: UMUC3, 72 h
[10] = Cytotoxicity against human K562 cells assessed as growth inhibition after 72 hrs by Alamar Blue assay; type: functional, cell-based; settings: K562, 72 h
[11] = Cytotoxicity against human BxPC3 cells assessed as growth inhibition after 72 hrs by Alamar Blue assay; type: functional, cell-based; settings: BXPC-3, 72 h
[12] = Solubility of the compound in phosphate buffered saline at pH 2 after 2 hrs by turbidimetric method; type: physicochemical
[13] = Solubility of the compound in phosphate buffered saline at pH 6 after 2 hrs by turbidimetric method; type: physicochemical
[14] = Solubility of the compound in phosphate buffered saline at pH 7.4 after 2 hrs by turbidimetric method; type: physicochemical
[15] = n-octanol-buffer distribution co-efficient, log D of the compound at pH 7.4 by shake flask method; type: physicochemical
[16] = Apparent passive permeability of the compound at 10 uM after 5 hrs by PAMPA; type: ADME; settings: PAMPA
[17] = Passive permeability of the compound assessed as compound recovery at 10 uM after 5 hrs by PAMPA; type: ADME; settings: read-out: Drug recovery
[18] = Efflux ratio of apparent permeability across basolateral to apical over apical to basolateral side in human Caco2 cells at 10 uM after 2 hrs by LC-MS/MS method; type: ADME, cell-based; settings: Caco-2
[19] = Intrinsic clearance in human liver microsomes assessed per mg of protein at 3 uM after 5 to 60 mins by LC-MS/MS method; type: ADME; settings: read-out: CLH
[20] = Intrinsic clearance in mouse liver microsomes assessed per mg of protein at 3 uM after 5 to 60 mins by LC-MS/MS method; type: ADME; settings: read-out: CLH
[21] = Half life in human liver microsomes at 3 uM by LC-MS/MS method; type: ADME
[22] = Half life in mouse liver microsomes at 3 uM by LC-MS/MS method; type: ADME
[23] = Drug metabolism in human liver microsomes assessed as 2-(2,4-dihydroxy-6-pentylphenoxy)-4-hydroxy-6-pentanoylbenzoic acid formation at 3 uM in presence of NADPH after 5 to 45 mins by LC-MS/MS method; type: ADME
[24] = Drug metabolism in human liver microsomes assessed as 3,8-dihydroxy-6-(5-hydroxypentyl)-1-pentanoyl-11H-dibenzo[b,e][1,4]dioxepin-11-one formation at 3 uM in presence of NADPH after 5 to 45 mins by LC-MS/MS method; type: ADME
[25] = Drug metabolism in human liver microsomes assessed as methyl 2,4-dihydroxy-6-pentanoylbenzoate formation at 3 uM in presence of NADPH after 5 to 45 mins by LC-MS/MS method; type: ADME
[26] = Drug level in human liver microsomes treated with norlobaridone at 3 uM in presence of NADPH after 5 to 45 mins by LC-MS/MS method; type: ADME

T1 sequence (Q96Q89 whole entry, the tested form may be a part): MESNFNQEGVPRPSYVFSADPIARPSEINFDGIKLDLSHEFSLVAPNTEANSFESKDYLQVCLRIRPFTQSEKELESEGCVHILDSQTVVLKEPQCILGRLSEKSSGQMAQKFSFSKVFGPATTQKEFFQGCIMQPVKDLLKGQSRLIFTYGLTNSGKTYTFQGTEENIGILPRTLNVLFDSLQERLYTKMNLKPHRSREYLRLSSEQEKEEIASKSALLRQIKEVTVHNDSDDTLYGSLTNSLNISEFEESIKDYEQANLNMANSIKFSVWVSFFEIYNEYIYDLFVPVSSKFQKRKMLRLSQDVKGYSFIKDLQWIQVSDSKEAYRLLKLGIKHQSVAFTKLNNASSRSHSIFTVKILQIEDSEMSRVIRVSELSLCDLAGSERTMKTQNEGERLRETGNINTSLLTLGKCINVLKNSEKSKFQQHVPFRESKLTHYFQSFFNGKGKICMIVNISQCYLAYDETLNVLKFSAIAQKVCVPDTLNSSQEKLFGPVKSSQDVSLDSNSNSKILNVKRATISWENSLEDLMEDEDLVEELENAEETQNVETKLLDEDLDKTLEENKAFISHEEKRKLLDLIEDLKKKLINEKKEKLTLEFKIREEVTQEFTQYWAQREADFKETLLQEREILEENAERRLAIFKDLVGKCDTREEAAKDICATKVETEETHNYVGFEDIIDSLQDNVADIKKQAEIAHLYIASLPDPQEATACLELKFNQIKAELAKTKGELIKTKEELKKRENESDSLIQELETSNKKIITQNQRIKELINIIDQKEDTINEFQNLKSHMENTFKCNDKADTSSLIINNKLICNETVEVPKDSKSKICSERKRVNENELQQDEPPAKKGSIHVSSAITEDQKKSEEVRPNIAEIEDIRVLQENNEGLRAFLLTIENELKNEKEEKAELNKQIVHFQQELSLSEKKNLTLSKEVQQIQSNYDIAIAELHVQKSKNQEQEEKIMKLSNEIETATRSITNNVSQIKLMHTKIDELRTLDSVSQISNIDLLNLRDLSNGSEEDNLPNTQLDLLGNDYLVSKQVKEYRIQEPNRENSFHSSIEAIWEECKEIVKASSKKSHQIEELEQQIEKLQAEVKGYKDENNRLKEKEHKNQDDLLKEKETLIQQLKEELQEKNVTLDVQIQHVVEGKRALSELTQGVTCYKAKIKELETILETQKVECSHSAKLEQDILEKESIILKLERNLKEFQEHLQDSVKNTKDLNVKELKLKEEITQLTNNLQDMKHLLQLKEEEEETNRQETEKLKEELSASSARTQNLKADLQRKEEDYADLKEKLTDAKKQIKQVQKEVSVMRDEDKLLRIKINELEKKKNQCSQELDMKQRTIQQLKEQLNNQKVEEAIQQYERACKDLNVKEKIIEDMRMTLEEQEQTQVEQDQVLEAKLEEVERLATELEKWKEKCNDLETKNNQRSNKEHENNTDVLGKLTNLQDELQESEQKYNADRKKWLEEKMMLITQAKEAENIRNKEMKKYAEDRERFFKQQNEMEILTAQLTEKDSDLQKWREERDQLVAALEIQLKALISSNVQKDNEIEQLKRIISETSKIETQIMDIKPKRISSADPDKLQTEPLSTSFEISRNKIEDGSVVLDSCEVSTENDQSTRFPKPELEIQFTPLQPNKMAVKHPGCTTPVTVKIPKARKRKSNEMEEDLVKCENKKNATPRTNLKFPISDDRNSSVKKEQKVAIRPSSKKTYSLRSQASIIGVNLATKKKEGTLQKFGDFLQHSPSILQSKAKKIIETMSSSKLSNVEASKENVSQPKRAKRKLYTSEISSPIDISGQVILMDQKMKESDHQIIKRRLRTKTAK

## CCCCCc1cc(O)cc2c1Oc1cc(O)cc(C(=O)CCCC)c1C(=O)O2
[1]
  pIC50: 4.73
  Imax: 75%
[2]
  pIC50: 4.61
  Imax: 90%
[3]
  pIC50: 4.97
  Imax: 80%
[4]
  pIC50: 5.12
  Imax: 90%
[5]
  inhibition: Active
[6]
  inhibition: Active
[7]
  pEC50: 4.37
[8]
  pEC50: 4.32
[9]
  pEC50: 4.52
[10]
  pEC50: 4.36
[11]
  pEC50: 4.48
[12]
  solubility kinetic at 2 h: 6.5 µM (≈ 2.59 µg/mL)
[13]
  solubility kinetic at 2 h: 3.75 µM (≈ 1.49 µg/mL)
[14]
  solubility kinetic at 2 h: 37.5 µM (≈ 14.9 µg/mL)
[15]
  logD: 3.5
[16]
  Papp at 5 h, 10 µM: 32.4 ×10⁻⁶ cm/s
[17]
  recovery at 5 h, 10 µM: 95.1%
[18]
  efflux ratio at 2 h, 10 µM: 0.51
[19]
  microsomal CLint at 3 µM: 393 µL/min/mg
[20]
  microsomal CLint at 3 µM: 452 µL/min/mg
[21]
  half-life at 3 µM: 3.5 min
[22]
  half-life at 3 µM: 3.1 min
[23]
  Drug metabolism: Metabolite_Detected
[24]
  Drug metabolism: Metabolite_Detected
[25]
  Drug metabolism: Metabolite_Detected

## CCCCC(=O)c1cc(O)cc(O)c1C(=O)OC
[26]
  Drug metabolism: Metabolite_Detected

## CCCCC(=O)c1cc(O)cc2c1C(=O)Oc1cc(O)cc(CCCCCO)c1O2
[26]
  Drug metabolism: Metabolite_Detected

## CCCCCc1cc(O)cc(O)c1Oc1cc(O)cc(C(=O)CCCC)c1C(=O)O
[26]
  Drug metabolism: Metabolite_Detected

## CCCCCc1c2c(cc(O)c1C(=O)O)OC(=O)c1c(cc(OC)cc1C(=O)CCCC)O2 [LOBARIC ACID]
[7]
  pEC50: 6.10
[8]
  pEC50: 5.44
[9]
  pEC50: 5.43
[10]
  pEC50: 5.85
[11]
  pEC50: 5.80

## Cc1cc(O)cc2c1C(=O)Oc1cc3c(c(O)c1O2)C(=O)OC3 [VARIOLARIC ACID]
[7]
  pEC50: < 4.00
[8]
  pEC50: < 4.30
[9]
  pEC50: < 4.00
[10]
  pEC50: < 4.00
